The supplement of paper PMC10627819

What was measured:
B. subtilis 168 [1] = assay: fitness (endpoint OD595 vs no drug) (fraction); higher = more growth
In short: (§1)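 Background-subtracted growth curves were the basis for fitness, taken as the optical density at entry into stationary phase over the robust mean of no-drug control wells. A cap of 1 was applied. The curves came from OD595 readings every 30 min for 14 h at 37 °C, in 384-well plates seeded at OD595 0.01 with 30 µl, or 55 µl for S. pneumoniae.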

S. pneumoniae D39V [2] = assay: as above
In short: as §1

S. aureus Newman = assay: Bliss interaction score (quartile over a dose matrix) (fitness difference); higher = more antagonism (negative = synergy)
In short: (§2)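 The Bliss score is observed fitness minus expected fitness, where the expected value is the product of single-drug fitness values inferred from combination data. Fitness is OD595 at entry into stationary phase normalised to the plate's robust no-drug mean and capped at 1. Scores are reported as quartiles spanning technical, biological and donor/recipient replicates.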

B. subtilis 168 [3] = assay: as above
In short: as §2

S. aureus DSM 20231 = assay: as above
In short: as §2

S. pneumoniae D39V [4] = assay: as above
In short: as §2
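Wherever Bliss interaction score (quartile over a dose matrix) is given: first quartile when negative (synergy) and third quartile when positive (antagonism).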

C[C@H]1COc2c(N3CCN(C)CC3)c(F)cc3c(=O)c(C(=O)O)cn1c23 [Levofloxacin] + CC1=C\[C@@H](O)CC(=O)Cc2nc(co2)C(=O)N2CCC=C2C(=O)O[C@H](C(C)C)[C@H](C)/C=C/C(=O)NC\C=C\1 [Virginiamycin M1]
fitness, one replicate
Settings | partner 0.0625 µg/mL | partner 0.125 µg/mL | partner 0.15 µg/mL | partner 0.25 µg/mL | partner 0.3 µg/mL | partner 0.5 µg/mL | partner 1 µg/mL
B. subtilis 168 [1], first compound 0.001 µg/mL | 0.869 | 0.947 | – | 0.969 | – | – | –
B. subtilis 168 [1], first compound 0.002 µg/mL | 0.949 | 0.971 | – | 0.936 | – | – | –
B. subtilis 168 [1], first compound 0.0039 µg/mL | 0.887 | 0.918 | – | 0.904 | – | – | –
S. pneumoniae D39V [2], first compound 0.2 µg/mL | – | – | 0.954 | – | 0.876 | 0.925 | 0.937
S. pneumoniae D39V [2], first compound 0.4 µg/mL | – | – | 0.921 | – | 0.913 | 0.834 | 0.832
S. pneumoniae D39V [2], first compound 0.8 µg/mL | – | – | 0.829 | – | 0.797 | 0.539 | 0.391

Settings | fitness
B. subtilis 168 [1], first compound 0.0312 µg/mL, partner 0.0625 µg/mL | 0.0334
B. subtilis 168 [1], first compound 0.0312 µg/mL, partner 0.125 µg/mL | 0.0383
B. subtilis 168 [1], first compound 0.0312 µg/mL, partner 0.25 µg/mL | 0.0414
B. subtilis 168 [1], first compound 0.0625 µg/mL, partner 0.0625 µg/mL | 0.0348
B. subtilis 168 [1], first compound 0.0625 µg/mL, partner 0.125 µg/mL | 0.0328
B. subtilis 168 [1], first compound 0.0625 µg/mL, partner 0.25 µg/mL | 0.0437
B. subtilis 168 [1], first compound 0.125 µg/mL, partner 0.0625 µg/mL | 0.0353
B. subtilis 168 [1], first compound 0.125 µg/mL, partner 0.125 µg/mL | 0.0443
B. subtilis 168 [1], first compound 0.125 µg/mL, partner 0.25 µg/mL | 0.0489
S. pneumoniae D39V [2], first compound 0.1725 µg/mL, partner 0.5 µg/mL | 0.998
S. pneumoniae D39V [2], first compound 0.1725 µg/mL, partner 1 µg/mL | 0.992
S. pneumoniae D39V [2], first compound 0.1725 µg/mL, partner 2 µg/mL | 0.969
S. pneumoniae D39V [2], first compound 0.2 µg/mL, partner 2 µg/mL | 0.896
S. pneumoniae D39V [2], first compound 0.345 µg/mL, partner 0.5 µg/mL | 0.92
S. pneumoniae D39V [2], first compound 0.345 µg/mL, partner 1 µg/mL | 0.904
S. pneumoniae D39V [2], first compound 0.345 µg/mL, partner 2 µg/mL | 0.9
S. pneumoniae D39V [2], first compound 0.4 µg/mL, partner 2 µg/mL | 0.817
S. pneumoniae D39V [2], first compound 0.69 µg/mL, partner 0.5 µg/mL | 0.539
S. pneumoniae D39V [2], first compound 0.69 µg/mL, partner 1 µg/mL | 0.464
S. pneumoniae D39V [2], first compound 0.69 µg/mL, partner 2 µg/mL | 0.458
S. pneumoniae D39V [2], first compound 0.8 µg/mL, partner 2 µg/mL | 0.567

Settings | Bliss interaction score
B. subtilis 168 [3] | 0.0195
S. aureus DSM 20231 | -0.0827
S. aureus Newman | -0.0223
S. pneumoniae D39V [4] | 0.0593

C[C@H]1COc2c(N3CCN(C)CC3)c(F)cc3c(=O)c(C(=O)O)cn1c23 [Levofloxacin] + CC(=O)NC[C@H]1CN(c2ccc(N3CCOCC3)c(F)c2)C(=O)O1 [Linezolid]
fitness, B. subtilis 168 [1], one replicate
Settings | first compound 0.001 µg/mL | first compound 0.002 µg/mL | first compound 0.0039 µg/mL | first compound 0.0078 µg/mL
partner 0.0625 µg/mL | – | 0.886 | 0.846 | 0.862
partner 0.125 µg/mL | 0.82 | – | – | 0.615
partner 0.25 µg/mL | 0.66 | – | – | 0.0853
partner 0.5 µg/mL | 0.0709 | 0.0326 | 0.0626 | –

Settings | fitness
B. subtilis 168 [1], first compound 0.002 µg/mL, partner 0.125 µg/mL | 0.696
B. subtilis 168 [1], first compound 0.0039 µg/mL, partner 0.125 µg/mL | 0.683
B. subtilis 168 [1], first compound 0.0312 µg/mL, partner 0.125 µg/mL | 0.0311
B. subtilis 168 [1], first compound 0.0312 µg/mL, partner 0.25 µg/mL | 0.0424
B. subtilis 168 [1], first compound 0.0312 µg/mL, partner 0.5 µg/mL | 0.045
B. subtilis 168 [1], first compound 0.0625 µg/mL, partner 0.125 µg/mL | 0.0397
B. subtilis 168 [1], first compound 0.0625 µg/mL, partner 0.25 µg/mL | 0.0517
B. subtilis 168 [1], first compound 0.0625 µg/mL, partner 0.5 µg/mL | 0.0516
B. subtilis 168 [1], first compound 0.125 µg/mL, partner 0.125 µg/mL | 0.0523
B. subtilis 168 [1], first compound 0.125 µg/mL, partner 0.25 µg/mL | 0.0524
B. subtilis 168 [1], first compound 0.125 µg/mL, partner 0.5 µg/mL | 0.0424
S. pneumoniae D39V [2], first compound 0.1725 µg/mL, partner 0.2 µg/mL | 0.848
S. pneumoniae D39V [2], first compound 0.1725 µg/mL, partner 0.4 µg/mL | 0.669
S. pneumoniae D39V [2], first compound 0.1725 µg/mL, partner 0.8 µg/mL | 0.333
S. pneumoniae D39V [2], first compound 0.2 µg/mL, partner 0.105 µg/mL | 0.81
S. pneumoniae D39V [2], first compound 0.2 µg/mL, partner 0.21 µg/mL | 0.694
S. pneumoniae D39V [2], first compound 0.2 µg/mL, partner 0.42 µg/mL | 0.568
S. pneumoniae D39V [2], first compound 0.345 µg/mL, partner 0.2 µg/mL | 0.777
S. pneumoniae D39V [2], first compound 0.345 µg/mL, partner 0.4 µg/mL | 0.591
S. pneumoniae D39V [2], first compound 0.345 µg/mL, partner 0.8 µg/mL | 0.295
S. pneumoniae D39V [2], first compound 0.4 µg/mL, partner 0.105 µg/mL | 0.72
S. pneumoniae D39V [2], first compound 0.4 µg/mL, partner 0.21 µg/mL | 0.652
S. pneumoniae D39V [2], first compound 0.4 µg/mL, partner 0.42 µg/mL | 0.506
S. pneumoniae D39V [2], first compound 0.69 µg/mL, partner 0.2 µg/mL | 0.555
S. pneumoniae D39V [2], first compound 0.69 µg/mL, partner 0.4 µg/mL | 0.323
S. pneumoniae D39V [2], first compound 0.69 µg/mL, partner 0.8 µg/mL | 0.196
S. pneumoniae D39V [2], first compound 0.8 µg/mL, partner 0.105 µg/mL | 0.449
S. pneumoniae D39V [2], first compound 0.8 µg/mL, partner 0.21 µg/mL | 0.351
S. pneumoniae D39V [2], first compound 0.8 µg/mL, partner 0.42 µg/mL | 0.284

Settings | Bliss interaction score
B. subtilis 168 [3] | 0.0633
S. aureus DSM 20231 | 0.0666
S. aureus Newman | 0.0972
S. pneumoniae D39V [4] | 0.0612

C[C@H]1COc2c(N3CCN(C)CC3)c(F)cc3c(=O)c(C(=O)O)cn1c23 [Levofloxacin] + CCC(C)C1C(=O)NC(=C)C(=O)NC(C(=O)NC(CSCC(C(=O)N1)NC(=O)/C(=C/C)/NC(=O)C(C(C)CC)N)C(=O)NC2C(SCC(NC(=O)CNC(=O)C3CCCN3C2=O)C(=O)NC(CCCCN)C(=O)NC4C(SCC(NC(=O)CNC(=O)C(NC(=O)C(NC(=O)C(NC(=O)CNC4=O)C)CC(C)C)CCSC)C(=O)NC(CC(=O)N)C(=O)NC(CCSC)C(=O)NC(CCCCN)C(=O)NC5C(SCC6C(=O)NC(C(=O)NC(CSC(C(C(=O)N6)NC(=O)C(NC5=O)C)C)C(=O)NC(CO)C(=O)NC(C(C)CC)C(=O)NC(CC7=CN=CN7)C(=O)NC(C(C)C)C(=O)NC(=C)C(=O)NC(CCCCN)C(=O)O)CC8=CN=CN8)C)C)C)CC(C)C [Nisin]
fitness, B. subtilis 168 [1], one replicate, main component drawn
Settings | first compound 0.001 µg/mL | first compound 0.002 µg/mL | first compound 0.0039 µg/mL | first compound 0.0078 µg/mL | first compound 0.0312 µg/mL | first compound 0.0625 µg/mL | first compound 0.125 µg/mL
partner 0.5 µg/mL | 0.923 | 0.904 | 0.898 | – | 0.0428 | 0.0426 | 0.0499
partner 1 µg/mL | 0.88 | 0.871 | 0.882 | – | 0.032 | 0.0609 | 0.0546
partner 1.25 µg/mL | – | 0.883 | 0.888 | 0.868 | – | – | –
partner 1.6 µg/mL | – | 0.744 | 0.734 | 0.701 | – | – | –
partner 2 µg/mL | 0.778 | 0.76 | 0.747 | – | 0.0482 | 0.0558 | 0.0347
partner 2.5 µg/mL | – | 0.696 | 0.319 | 0.598 | – | – | –
partner 3.2 µg/mL | – | 0.0329 | 0.0154 | 0.0243 | – | – | –
partner 4 µg/mL | – | – | – | – | 0.0425 | 0.0381 | 0.0437
partner 5 µg/mL | – | 0.0276 | 0.088 | 0.112 | – | – | –
partner 6.4 µg/mL | – | 0.0319 | 0.0555 | 0.0288 | – | – | –
partner 8 µg/mL | – | – | – | – | 0.0314 | 0.0402 | 0.0327
partner 16 µg/mL | – | – | – | – | 0.0291 | 0.0222 | 0.0121

S. pneumoniae D39V [2], main component drawn
Settings | fitness
first compound 0.1725 µg/mL, partner 1.6 µg/mL | 0.157
first compound 0.1725 µg/mL, partner 3.2 µg/mL | 0.0386
first compound 0.1725 µg/mL, partner 6.4 µg/mL | 0.0067
first compound 0.2 µg/mL, partner 0.4275 µg/mL | 0.906
first compound 0.2 µg/mL, partner 0.855 µg/mL | 0.956
first compound 0.2 µg/mL, partner 1.71 µg/mL | 0.0809
first compound 0.345 µg/mL, partner 3.2 µg/mL | 0.0036
first compound 0.345 µg/mL, partner 6.4 µg/mL | 0.0023
first compound 0.4 µg/mL, partner 0.4275 µg/mL | 0.844
first compound 0.4 µg/mL, partner 1.71 µg/mL | 0.0708
first compound 0.69 µg/mL, partner 1.6 µg/mL | 0.0158
first compound 0.69 µg/mL, partner 3.2 µg/mL | 0.0153
first compound 0.69 µg/mL, partner 6.4 µg/mL | 0.0526
first compound 0.8 µg/mL, partner 0.4275 µg/mL | 0.298
first compound 0.8 µg/mL, partner 0.855 µg/mL | 0.102
first compound 0.8 µg/mL, partner 1.71 µg/mL | 0.0697

main component drawn
Settings | Bliss interaction score
B. subtilis 168 [3] | 0.0523
S. aureus DSM 20231 | 0.0616
S. aureus Newman | -0.0668
S. pneumoniae D39V [4] | -0.0976
